In patent publication US8338637B2, “Therapeutic compounds” (Allergan, Inc., priority 2006, dated 2012) one finds EC50 and Ki data, which are given here for two compounds.

Assay [1] addresses T1, EP2 (Homo sapiens, UniProt P43116). Nature of the assay: cAMP assay, HEK-EBNA cells expressing EP2. Type of assay: cell-based. More on the design: expressed in transfected cells; host or cells: HEK-EBNA cells. Here is the method: A 384-well drug plate was prepared to contain 6 test compounds, PGE2 and cAMP in 16 serial dilutions in triplicate, using a Biomek station. HEK-EBNA cells expressing a target PG receptor subtype (EP2 or EP4) were suspended in a stimulation buffer (HBSS, 0.1% BSA, 0.5 mM IBMX and 5 mM HEPES, pH 7.4) in a density of 10^4 cells/5 μl. The reaction was initiated by mixing 5 μL drug dilutions with 5 μl of HEK-EBNA cells in a well, carried out for 30 min at room temperature, and followed by the addition of 5 μl anti-cAMP acceptor beads in the control buffer with Tween-20 (25 mM NaCl, 0.03% Tween-20, 5 mM HEPES, pH7.4). After 30 min in the dark at room temperature, the mixtures were incubated with 15 μl biotinylated-cAMP/strepavidin donor beads in Lysis/Detection buffer (0.1% BSA, 0.3% Tween-20 and 5 mM HEPES, pH7.4) for 45 min at the room temperature. Fluorescence changes were read using a Fusion-alpha HT microplate reader.
On the technique in general: Cyclic AMP is a second messenger, typically raised through Gs and lowered through Gi signalling.

For assay [2], the target named is T2, EP4 receptors (Homo sapiens, UniProt P35408).
T2 construct: expressed in transfected cells; host or cells: HEK-293 cells (membrane fraction)
Nature of the assay: Radioligand binding, EP4 receptor. To be noted: [3H]PGE2 competition. Here is the method:
HEK-293 cells stably expressing the human or feline FP receptor, or EP1, EP2, or EP4 receptors were washed with TME buffer, scraped from the bottom of the flasks, and homogenized for 30 sec using a Brinkman PT 10/35 polytron. TME buffer was added to achieve a final 40 ml volume in the centrifuge tubes (the composition of TME is 100 mM TRIS base, 20 mM MgCl2, […]; 10N HCl is added to achieve a pH of 7.4).
The cell homogenate was centrifuged at 19000 r.p.m. for 20 min at 4° C. using a Beckman Ti-60 rotor. The resultant pellet was resuspended in TME buffer to give a final 1 mg/ml protein concentration, as determined by Biorad assay. Radioligand binding competition assays vs. [^3H-]17-phenyl PGF2[…] (5 nM) were performed in a 100 μl volume for 60 min. Binding reactions were started by adding plasma membrane fraction. The reaction was terminated by the addition of 4 ml ice-cold TRIS-HCl buffer and rapid filtration through glass fiber GF/B filters using a Brandel cell harvester. The filters were washed 3 times with ice-cold buffer and oven dried for one hour.
[^3H-] PGE2 (specific activity 180 Ci mmol) was used as the radioligand for EP receptors. [^3H] 17-phenyl PGF2α was employed for FP receptor binding studies. […] 17-phenyl PGF2α and non-specific binding determined with 10^−5M of unlabeled PGE2, or 17-phenyl PGF2α, according to receptor subtype studied.

Assay [3] addresses T1, EP2. Kind of assay: Competition binding, [3H]PGE2, HEK 293 cells expressing human EP2 receptors. More on the design: expressed in transfected cells; host or cells: HEK 293 cells (membranes or whole cells). Conditions: [3H]PGE2 competition. Here is the method: Competition binding experiments were performed in a medium containing Hank's balanced salt solution, Hepes 20 mM, pH 7.3, membranes (˜60 μg protein) or 2×10^5 cells from HEK 293 cells stably expressing human EP2 receptors, [^3H]PGE2 (10 nM) and various concentrations of test compounds in a total volume of 300 μl. Reaction mixtures were incubated at 23° C. for 60 min, and were filtered over Whatman GF/B filters under vacuum. Filters were washed three times with 5 ml ice-cold buffer containing 50 mM Tris/HCl (pH 7.3). Non-specific binding was estimated in the presence of excess unlabeled PGE2 (10 μM). Binding data fitted to the binding model for a single class of binding sites, using nonlinear regression analysis. IC50 values thus obtained were converted to Ki using the equation of Ki=(IC50/(1+[L]/KD) where [L] represents PGE2 concentration (10 nM) and KD the dissociation constant for [^3H]PGE2 at human EP2 receptors (40 nM). […]
The cell homogenate was centrifuged at 19000 r.p.m. for 20 min at 4° C. using a Beckman Ti-60 rotor. The resultant pellet was resuspended in TME buffer to give a final 1 mg/ml protein concentration, as determined by Biorad assay. […]
[^3H-] […] 17-phenyl PGF2α and non-specific binding determined with 10^−5M of unlabeled PGE2, or 17-phenyl PGF2α, according to receptor subtype studied.

Each structure is given as a SMILES string. A value given as a limit tells only on which side of the number the result lay.

T1 sequence (P43116 whole entry): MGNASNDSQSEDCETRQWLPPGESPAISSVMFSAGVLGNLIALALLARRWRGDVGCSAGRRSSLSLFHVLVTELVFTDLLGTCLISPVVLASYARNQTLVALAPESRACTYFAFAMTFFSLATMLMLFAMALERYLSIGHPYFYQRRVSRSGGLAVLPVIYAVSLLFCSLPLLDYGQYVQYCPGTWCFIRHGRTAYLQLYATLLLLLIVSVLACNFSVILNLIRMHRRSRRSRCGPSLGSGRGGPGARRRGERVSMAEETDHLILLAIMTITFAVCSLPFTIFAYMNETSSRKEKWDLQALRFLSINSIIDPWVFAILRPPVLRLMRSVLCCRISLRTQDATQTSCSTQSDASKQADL
T2 sequence (P35408 whole entry): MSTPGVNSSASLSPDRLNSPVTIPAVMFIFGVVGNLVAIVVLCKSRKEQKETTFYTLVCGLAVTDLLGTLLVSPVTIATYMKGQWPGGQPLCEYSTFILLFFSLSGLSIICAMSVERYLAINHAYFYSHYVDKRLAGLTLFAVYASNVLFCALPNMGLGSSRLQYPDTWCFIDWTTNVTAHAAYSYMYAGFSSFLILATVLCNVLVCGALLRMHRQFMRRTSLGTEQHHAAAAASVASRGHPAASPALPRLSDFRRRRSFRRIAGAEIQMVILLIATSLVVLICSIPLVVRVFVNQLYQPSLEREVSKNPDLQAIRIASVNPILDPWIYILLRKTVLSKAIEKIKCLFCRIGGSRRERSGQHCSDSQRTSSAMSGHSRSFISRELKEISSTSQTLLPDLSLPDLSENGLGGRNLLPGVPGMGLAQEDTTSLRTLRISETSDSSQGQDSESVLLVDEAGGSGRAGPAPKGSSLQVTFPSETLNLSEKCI

The term EC50 denotes the concentration giving half of the maximal effect. Read a high EC50 as lower potency in that assay. Broadly, the Ki is a dissociation constant, usually derived from enzyme kinetics or from competition with a known ligand. The low end stands for a stronger hold on the target, the high end for a looser hold on the target. As to `O=C(O)c1ccc(CCC[C@H]2CCC(=O)[C@@H]2COc2cc(Cl)cc(CO)c2)s1` [5-{3-[(1S,2S)-2-(3-Chloro-5-hydroxymethyl-phenoxymethyl)-3-oxo-cyclopentyl]-propyl}thiophene-2-carboxylic acid], the midpoint of the response in assay [1], the EC50, lay at 457 nM. The Ki in assay [2] is above 10000 nM; in assay [3] it was 300 nM.
`O=C(O)c1ccc(CCC[C@H]2C=CC(=O)[C@@H]2COc2cc(Cl)cc(CO)c2)s1` [5-{3-[(1S,5S)-5-(3-Chloro-5-hydroxymethyl-phenoxymethyl)-4-oxo-cyclopent-2-enyl]-propyl}-thiophene-2-carboxylic acid]: the EC50 in assay [1] was 8.7 nM. In assay [3], this compound had a Ki of 201 nM.
